Results on one molecule are retold here after ChEMBL document CHEMBL3886365, “Substituted oxadiazole compounds” (2015).

Experiment [1] concerns the target Sphingosine 1-phosphate receptor 3 (Homo sapiens, UniProt Q99500). Put plainly: (§1) GTPgammaS Binding Assay: Compounds were loaded in a 384 Falcon v-bottom plate (0.5 ul/well in a 11 point, 3-fold dilution). Membranes prepared from S1P1/CHO cells or EDG3-Ga15-bla HEK293T cells were added to the compound plate (40 ul/well, final protein 3 ug/well) with MULTIDROP. [35S]GTP (1250 Ci/mmol, Perkin Elmer) was diluted in assay buffer: 20 mM HEPES, pH7.5, 10 mM MgCl2, 150 mM NaCl, 1 mM EGTA, 1 mM DTT, 10 uM GDP, 0.1% fatty acid free BSA, and 10 ug/ml Saponin to 0.4 nM. 40 ul of the [35S] GTP solution was added to the compound plate with a final concentration of 0.2 nM. The reaction was kept at room temperature for 45 min. At the end of incubation, all the mixtures in the compound plate were transferred to Millipore 384-well FB filter plates via the VELOCITY11 Vprep liquid handler. The filter plate was washed with water 4 times by using the manifold Embla plate washer and dried at 60° C. for 45 min. MicroScint 20 scintillation fluid (30 ul) was added to each well. The format is functional, cell membranes.

Experiment [2] concerns the target Sphingosine 1-phosphate receptor 1 (Homo sapiens, UniProt P21453). The description is as §1. The format is functional, cell membranes.

Chain of Sphingosine 1-phosphate receptor 1 (P21453 whole entry): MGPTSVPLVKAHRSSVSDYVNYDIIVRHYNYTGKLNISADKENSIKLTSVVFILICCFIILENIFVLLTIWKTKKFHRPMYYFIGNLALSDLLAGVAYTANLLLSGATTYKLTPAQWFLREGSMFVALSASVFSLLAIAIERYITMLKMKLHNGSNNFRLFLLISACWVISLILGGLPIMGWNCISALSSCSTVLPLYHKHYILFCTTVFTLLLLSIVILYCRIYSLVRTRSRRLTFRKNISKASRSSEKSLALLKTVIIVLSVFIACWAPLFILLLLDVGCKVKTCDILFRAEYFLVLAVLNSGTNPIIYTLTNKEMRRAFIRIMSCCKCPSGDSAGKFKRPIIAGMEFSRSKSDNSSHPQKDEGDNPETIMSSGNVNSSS
Chain of Sphingosine 1-phosphate receptor 3 (Q99500 whole entry): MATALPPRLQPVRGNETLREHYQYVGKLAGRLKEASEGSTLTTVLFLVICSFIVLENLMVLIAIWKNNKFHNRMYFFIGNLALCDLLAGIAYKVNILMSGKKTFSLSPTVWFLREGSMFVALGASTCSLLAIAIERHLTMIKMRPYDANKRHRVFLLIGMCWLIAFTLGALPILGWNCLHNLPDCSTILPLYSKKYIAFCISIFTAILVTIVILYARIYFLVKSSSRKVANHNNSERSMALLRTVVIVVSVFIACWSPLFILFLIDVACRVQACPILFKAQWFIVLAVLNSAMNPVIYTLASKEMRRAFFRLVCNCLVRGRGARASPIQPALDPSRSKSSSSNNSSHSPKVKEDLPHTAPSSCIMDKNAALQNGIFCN

`FC(F)(F)Oc1ccc(-c2noc(CCC3(c4ccccc4)CCCCC3)n2)cc1`: the EC50 is > 62 µM in experiment [1] and 5.7 µM in experiment [2].
